Where two headings read alike, the source gives them in different places. Bounds are passed on as bounds.

This passage reports CC50, IC50 and inhibition results from patent US6531610B1 (Abbott Laboratories, priority 1989, dated 2003).

Data set [1] in a line: in vitro. The format is cell-based. To be noted: human. An excerpt:
The anti-HIV activity of the compounds of the invention can be determined in MT4 cells according to the procedure of Kempf, et. al. (Antimicrob. Agents Chemother. 1991, 35, 2209).

Data set [2] has as its system HIV-13B in MT4 cells. The data set can be described thus: Antiviral activity: inhibition of the cytopathic effect of HIV in MT4 cells. To be noted: Human immunodeficiency virus 1, MT4. The format is cell-based, HIV-1. In general terms: Protection from cytopathic effect is a common read-out in antiviral testing.
For data set [3], the target named is HIV-1 protease (Human immunodeficiency virus type 1 group M subtype B, UniProt P04585). The data set can be described thus: Fluorogenic assay for screening inhibitors of HIV protease. The format is biochemical. To be noted: Inhibitor Concentration 0.5 nanomolar, fluorogenic substrate, pH 4.5, read-out: Percent Inhibition. Here is the method:
The inhibitory potency of the compounds of the invention can be determined by the following method.
A compound of the invention is dissolved in DMSO and a small aliquot further diluted with DMSO to 100 times the final concentration desired for testing. The reaction is carried out in a 6×50 mm tube in a total volume of 300 microliters. The final concentrations of the components in the reaction buffer are: 125 mM sodium acetate, 1 M sodium chloride, 5 mM dithiothreitol, 0.5 mg/ml bovine serum albumin, 1.3 μM fluorogenic substrate, 2% (v/v) dimethylsulfoxide, pH 4.5. After addition of inhibitor, the reaction mixture is placed in the fluorometer cell holder and incubated at […] for several minutes. The reaction is initiated by the addition of a small aliquot of cold HIV protease. The fluorescence intensity (excitation 340 nm, emission 490 nm) is recorded as a function of time. The reaction rate is determined for the first six to eight minutes. The observed rate is directly proportional to the moles of substrate cleaved per unit time. The percent inhibition is 100×(1-(rate in presence of inhibitor)/(rate in absence of inhibitor)).
Fluorogenic substrate: Dabcyl-[…]EDANS wherein DABCYL=4-(4-dimethylamino-phenyl)azobenzoic acid and EDANS=5-((2-aminoethyl)amino)-naphthalene-1-sulfonic acid.

Turning to `CC(C)c1nc(CN(C)C(=O)N[C@H](C(=O)N[C@H](Cc2cncs2)C[C@H](O)[C@H](Cc2ccccc2)NC(=O)OCc2cncs2)C(C)C)cs1` [Example 8, (2S,3S,5S)-5-(N-(N-((N-Methyl-N-((2-isopropyl-4-thiazolyl)methyl)amino)carbonyl)valinyl)amino)-1-phenyl-2-(N-((5-thiazolyl)methoxycarbonyl)amino)-6-(5-thiazolyl)-3-hydroxyhexane], the CC50 in data set [1] stood at 97000 nM. For the same compound, the 50% inhibitory concentration (IC50) in data set [2] (read-out: IC50) was in the range of 57 to 95 nM.

Regarding `CC(C)[C@H](NC(=O)OCc1csc(N(C)C)n1)C(=O)N[C@@H](Cc1ccccc1)C[C@H](O)[C@H](Cc1ccccc1)NC(=O)OCc1cncs1` [Example 9, (2S,3S,5S)-5-(N-(N-((2-(N,N-Dimethylamino)-4-thiazolyl)methoxycarbonyl)valinyl)amino)-2-(N-((5-thiazolyl)methoxycarbonyl)amino)-1,6-diphenyl-3-hydroxyhexane], the CC50 in data set [1] stood at 62000 nM. Moreover, the IC50 in data set [2] (read-out: IC50) was in the range of 80 to 100 nM.

`CC(C)[C@H](NC(=O)OCc1csc(N2CCCC2)n1)C(=O)N[C@@H](Cc1ccccc1)C[C@H](O)[C@H](Cc1ccccc1)NC(=O)OCc1cncs1` [Example 13, (2S,3S,5S)-5-(N-(N-((2-(1-Pyrrolidinyl)-4-thiazolyl)methoxycarbonyl)valinyl)amino)-2-(N-((5-thiazolyl)methoxycarbonyl)amino)-1,6-diphenyl-3-hydroxyhexane] registered a CC50 in data set [1] of 56000 nM. In addition, the inhibition at 0.0005 µM in data set [3] amounted to 46%. Besides, the IC50 in data set [2] (read-out: IC50) fell in the range of 56 to 88 nM.

Consider `CC(C)[C@H](NC(=O)OCc1csc(N2CCCC2)n1)C(=O)N[C@@H](Cc1ccccc1)[C@@H](O)C[C@H](Cc1ccccc1)NC(=O)OCc1cncs1` [Example 14, (2S,3S,5S)-2-(N-(N-((2-(1-Pyrrolidinyl)-4-thiazolyl)-methoxycarbonyl)valinyl)amino)-5-(N-((5-thiazolyl)-methoxycarbonyl)amino)-1,6-diphenyl-3-hydroxyhexane], for which the CC50 in data set [1] was greater than 100000 nM. Further, the IC50 in data set [2] (read-out: IC50) fell in the range of 140 to 220 nM.

Turning to `CC(C)c1nc(CN(C)C(=O)N[C@H](C(=O)N[C@@H](Cc2ccccc2)C[C@H](O)[C@H](Cc2ccccc2)NC(=O)OCc2cnc(C(C)C)s2)C(C)C)cs1` [Example 45, (2S,3S,5S)-5-(N-(N-((N-Methyl-N-((2-isopropyl-4-thiazolyl)methyl)amino)carbonyl)valinyl)amino)-2-(N-(((2-isopropyl)-5-thiazolyl)methoxycarbonyl)amino)-1,6-diphenyl-3-hydroxyhexane], the inhibition at 0.0005 µM in data set [3] stood at 50%. The IC50 in data set [2] (read-out: IC50) was in the range of 36 to 40 nM.

`CC(C)[C@H](NC(=O)N(C)Cc1csc(N2CCCC2)n1)C(=O)N[C@@H](Cc1ccccc1)C[C@H](O)[C@H](Cc1ccccc1)NC(=O)OCc1cncs1` [Example 46, (2S,3S,5S)-5-(N-(N-((N-Methyl-N-((2-(1-pyrrolidinyl)-4-thiazolyl)methyl)amino)carbonyl)valinyl)amino)-2-(N-((5-thiazolyl)methoxycarbonyl)amino)-1,6-diphenyl-3-hydroxyhexane]: in data set [3], the inhibition at 0.0005 µM turned out to be 46%. Further, in data set [2] (read-out: IC50), the IC50 lay in the range of 100 to 170 nM.

Turning to `CC(C)c1nc(CCOC(=O)N[C@H](C(=O)N[C@@H](Cc2ccccc2)[C@@H](O)C[C@H](Cc2ccccc2)NC(=O)OCc2cncs2)C(C)C)cs1` [Example 48, (2S,3S,5S)-2-(N-(N-((2-(2-Isopropyl-4-thiazolyl)ethoxy)carbonyl)valinyl)amino)-5-(N-((5-thiazolyl)methoxycarbonyl)amino)-1,6-diphenyl-3-hydroxyhexane], in data set [1], the CC50 is greater than 100000 nM. The IC50 in data set [2] (read-out: IC50) lay within 90 to 110 nM.

On to `CC(C)[C@H](NC(=O)N(C)Cc1csc(N2CCCC2)n1)C(=O)N[C@@H](Cc1ccccc1)C[C@H](O)[C@H](Cc1ccccc1)NC(=O)OCc1ccno1` [Example 49, (2S,3S,5S)-5-(N-(N-((N-Methyl-N-((2-(1-pyrrolidinyl)-4-thiazolyl)methyl)amino)carbonyl)valinyl)amino)-2-(N-((5-isoxazolyl)methoxycarbonyl)amino)-1,6-diphenyl-3-hydroxyhexane], for which, in data set [1], the CC50 came out at 38000 nM. Moreover, in data set [2] (read-out: IC50), the IC50 lay in the range of 81 to 130 nM.

For the compound `CCc1nc(CN(C)C(=O)N[C@H](C(=O)N[C@@H](Cc2ccccc2)C[C@H](O)[C@H](Cc2ccccc2)NC(=O)OCc2cncs2)C(C)C)cs1` [Example 53, (2S,3S,5S)-5-(N-(N-((N-Methyl-N-((2-ethyl-4-thiazolyl)methyl)amino)carbonyl)valinyl)amino)-2-(N-((5-thiazolyl)methoxycarbonyl)amino)-1,6-diphenyl-3-hydroxyhexane], in data set [2] (read-out: IC50), the concentration for half-maximal inhibition (IC50) was in the range of 32 to 73 nM.

In data set [2], `CCCN(Cc1csc(C(C)C)n1)C(=O)N[C@@H](C)C(=O)N[C@@H](Cc1ccccc1)C[C@H](O)[C@H](Cc1ccccc1)NC(=O)OCc1cncs1` [Example 54] showed an IC50 of 110 to 170 nM.

As for `CC(C)CN(Cc1csc(C(C)C)n1)C(=O)N[C@@H](C)C(=O)N[C@@H](Cc1ccccc1)C[C@H](O)[C@H](Cc1ccccc1)NC(=O)OCc1cncs1` [Example 55], in data set [2], the IC50 lay within 140 to 220 nM.

For `CC(C)c1nc(CN(C)C(=O)N[C@@H](C)C(=O)N[C@@H](Cc2ccccc2)C[C@H](O)[C@H](Cc2ccccc2)NC(=O)OCc2cncs2)co1` [Example 56, (2S,3S,5S)-5-(N-(N-((N-Methyl-N-((2-isopropyl-4-oxazolyl)methyl)amino)carbonyl)-L-alaninyl)amino)-2-(N-((5-thiazolyl)methoxycarbonyl)amino)-1,6-diphenyl-3-hydroxyhexane], in data set [2] (read-out: IC50), the IC50 is 50 to 67 nM.

For the compound `CC(C)c1nc(CN(C)C(=O)N[C@@H](C)C(=O)N[C@@H](Cc2ccccc2)C[C@H](O)[C@H](Cc2ccccc2)NC(=O)OCc2ccno2)co1` [Example 57, (2S,3S,5S)-5-(N-(N-((N-Methyl-N-((2-isopropyl-4-oxazolyl)methyl)amino)carbonyl)-L-alaninyl)amino)-2-(N-((5-isoxazolyl)methoxycarbonyl)amino)-1,6-diphenyl-3-hydroxyhexane], the IC50 in data set [2] (read-out: IC50) was in the range of 35 to 48 nM.

As for `CC(C)[C@H](NC(=O)N(C)Cc1csc(C2CCCC2)n1)C(=O)N[C@@H](Cc1ccccc1)C[C@H](O)[C@H](Cc1ccccc1)NC(=O)OCc1cncs1` [Example 58, (2S,3S,5S)-5-(N-(N-((N-Methyl-N-((2-cyclopentyl-4-thiazolyl)methyl)amino)carbonyl)valinyl)amino)-2-(N-((5-thiazolyl)methoxycarbonyl)amino)-1,6-diphenyl-3-hydroxyhexane], the CC50 in data set [1] was found to be 18000 nM. Besides, in data set [3], the inhibition at 0.0005 µM worked out at 49%. For the same compound, the IC50 in data set [2] (read-out: IC50) lay in the range of 30 to 46 nM.

Compound `CC(C)Cc1nc(CN(C)C(=O)N[C@H](C(=O)N[C@@H](Cc2ccccc2)C[C@H](O)[C@H](Cc2ccccc2)NC(=O)OCc2cncs2)C(C)C)cs1` [Example 59, (2S,3S,5S)-5-(N-(N-((N-Methyl-N-((2-isobutyl-4-thiazolyl)methyl)amino)carbonyl)valinyl)amino)-2-(N-((5-thiazolyl)methoxycarbonyl)amino)-1,6-diphenyl-3-hydroxyhexane] came in with a CC50 in data set [1] of 18000 nM. The inhibition at 0.0005 µM in data set [3] was determined as 39%. For the same compound, the IC50 in data set [2] (read-out: IC50) was in the range of 110 to 130 nM.

Turning to `CCN(Cc1csc(C2CCCC2)n1)C(=O)N[C@@H](C)C(=O)N[C@@H](Cc1ccccc1)C[C@H](O)[C@H](Cc1ccccc1)NC(=O)OCc1cncs1` [Example 60], the CC50 in data set [1] (concentration at which 50% of the cells remain viable, MT4 cells, read-out: LC50 (the source's name)) is 17000 nM. Also, the inhibition at 0.0005 µM in data set [3] was 44%. In data set [2], the concentration for half-maximal inhibition (IC50) was in the range of 340 to 510 nM.

`CC(C)c1nc(CCN(C)C(=O)N[C@H](C(=O)N[C@@H](Cc2ccccc2)C[C@H](O)[C@H](Cc2ccccc2)NC(=O)OCc2cncs2)C(C)C)cs1` [Example 61, (2S,3S,5S)-5-(N-(N-((N-Methyl-N-(2-(2-isopropyl-4-thiazolyl)ethyl)amino)carbonyl)valinyl)amino)-2-(N-((5-thiazolyl)methoxycarbonyl)amino)-1,6-diphenyl-3-hydroxyhexane]: the IC50 in data set [2] (read-out: IC50) was 150 to 220 nM.

`CC(C)c1nc(CN(NC(=O)OC(C)(C)C)C(=O)N[C@H](C(=O)N[C@@H](Cc2ccccc2)C[C@H](O)[C@H](Cc2ccccc2)NC(=O)OCc2cncs2)C(C)C)cs1` [Example 62, (2S,3S,5S)-5-(N-(N-((N-(tert-Butyloxycarbonylamino)-N-((2-isopropyl-4-thiazolyl)methyl)amino)carbonyl)valinyl)amino)-2-(N-((5-thiazolyl)methoxycarbonyl)amino)-1,6-diphenyl-3-hydroxyhexane] came in with a CC50 in data set [1] of 17000 nM. Moreover, the inhibition at 0.0005 µM in data set [3] was found to be 54%. Moreover, the 50% inhibitory concentration (IC50) in data set [2] (read-out: IC50) lay within 690 to 1000 nM.

With `CC(C)c1nc(COC(=O)N[C@H](C(=O)N[C@H](Cc2cncs2)C[C@H](O)[C@H](Cc2ccccc2)NC(=O)OCc2cncs2)C(C)C)cs1` [Example 64, (2S,3S,5S)-5-(N-(N-((2-Isopropyl-4-thiazolyl)methoxycarbonyl)valinyl)amino)-1-phenyl-2-(N-((5-thiazolyl)methoxycarbonyl)amino)-6-(5-thiazolyl)-3-hydroxyhexane], in data set [1], the CC50 is greater than 100000 nM. In addition, the IC50 in data set [2] (read-out: IC50) was in the range of 100 to 130 nM.

The IC50 is the point on the concentration scale where inhibition reaches its midpoint. A word on the inhibition: it is the drop in the measured response relative to a control, in per cent.
